From US8388953B2, “Method of increasing cathepsin B-induced cleavage of amyloid-β peptides” (The J. David Gladstone Institutes, priority 2006, dated 2013) come the findings set out here.

For data set [1], the target named is T1, purified CatB from human liver (Homo sapiens, UniProt P07858).
T1 construct: purified CatB from human liver (Sigma); purchased Sigma; host or cells: human liver (tissue-purified)
Description: Inhibition of CatB-induced Aβ1-42 cleavage by CA074 in the in vitro cleavage assay. It is filed as biochemical. On the procedure: (§1) Different amounts of purified CatB from human liver (Sigma) were preactivated with 4 mM cysteine at room temperature for 5 min in assay buffer, pH 6.0 or 7.0 after adjustment (Cathepsin B Activity Assay Kit, EMD Biosciences). Then, 20 ng of fresh, protofibrillar, or fibrillar Aβ1-42 was added and incubated at 37° C. for 120 min. All samples were run in parallel with and without the specific CatB inhibitor CA074. CatB-induced peptidase cleavage of Aβ1-42 was detected with mass spectrometry. Briefly, 5 μl of the reaction mixture was applied to an NP-20 normal-phase chip (Ciphergen Biosystems, Fremont, Calif.), and the spots were washed with water and air-dried. Twenty percent α-cyano-4-hydroxycinnamic acid in 50% acetonitrile, 0.5% trifluoroacetic acid (2×0.5 μl) was applied, and the chips were allowed to dry. Samples were analyzed in a PBS ITC SELDI-TOF mass spectrometer (Ciphergen) as an average of 160 shots for each spot. The system was calibrated daily with All-in-One peptide standards (Ciphergen) and synthetic Aβ1-42.
(§2) The products were also analyzed by western blotting on acid-urea gels with an anti-Aβ antibody (3D6) as described (DeMattos et al., 2001; Esposito et al., 2004) or on a Tricine SDS-PAGE. Briefly, 10 μl of the reaction mixture were resolved on 16% tricine gels and transferred to nitrocellulose membranes. Membranes were labeled with 21F12 (1:2000, Elan Pharmaceuticals), an antibody specific for Aβ1-42, to detect low MW Aβ1-42 oligomers. Since 21F12 was unable to detect higher MW assemblies, 3D6 (1:2000, Elan) was also used for immunoblotting. After incubation with an HRP-conjugated sheep anti-mouse IgG (1:2000; Amersham) secondary antibody, blots were developed with an ECL system (Perkin Elmer).

Data set [2] relates to cathepsin B activity in neuronal cells (N2a). Description: CatB activity assay in N2a cells treated with indomethacin. The note with it: indomethacin 25 μM-75 μM, 18-24 h. Format: cell-based, murine. The protocol:
(§3) Unless otherwise noted, all cell culture supplies, medium, and antibiotics were from Invitrogen (Carlsbad, Calif.). The murine neuronal cell line N2A was maintained in Dulbecco's modified Eagle's medium (DMEM) with 10% heat-inactivated fetal bovine serum (FBS), 100 U/ml penicillin G, and 100 μg/ml streptomycin at 37° C. in a humidified atmosphere containing 5% CO2. Before treatment, the medium was replaced with Neurobasal A medium supplemented with N2, and the cells were treated with fresh Aβ1-42 or Aβ1-40 at various concentrations for 24 h.
(§4) CatB activities in N2A cells or in hippocampus of hAPP mice and their littermate controls were quantified with the Innozyme Cathepsin B Activity Assay Kit (EMD Biosciences), according to the manufacturer's instructions. Cells or hippocampi were lysed in lysis buffer in the absence of proteinase inhibitors, preactivated with 4 mM cysteine, and incubated with the synthetic substrate Z-Arg-Arg AMC at 37° C. for 30 min. Released free AMC was determined fluorometrically as above. The enzymatic activities inhibited by CA074 were defined as CatB-specific activities. Protein concentrations were measured with the BCA protein assay kit (Pierce) and used to normalize CatB activities.
Neurobiatoma cell N2a cells were treated with indomethacin (25 μM-75 μM) for 18-24 h before being harvested for CatB activity assay.

In a further data set the test system is CatB in N2A cells. Description: N2A cells treated with Aβ peptides: CatB mRNA (quantitative RT-PCR) and CatB activity. The note with it: 20 μM; for CatB enzymatic activities / CatB mRNA levels: nonaggregated peptide, 24 h. It is filed as cell-based, murine. On the procedure:
as §3
(§5) Aβ1-42 and Aβ1-40 were from rPeptide (Athens, Ga.). Aβ powders lyophilized with hexafluoroisopropanol were reconstituted in dry dimethylsulfoxide (Sigma) at a concentration of 5 mM. Aggregated Aβ1-42 was prepared based on protocols developed in previous studies (Dahlgren et al., 2002; Lambert et al., 1998). For protofibrillar Aβ1-42 preparations, DMEM/F-12 was added to achieve a final peptide concentration of 100 μM and incubated at 4° C. for 24 h. For fibrillar conditions, 10 mM HCl was added to achieve a final peptide concentration of 100 μM and incubated for 24 h at 37° C. For unaggregated conditions (fresh Aβ), the 5 mM Aβ in […] was diluted directly into cell-culture medium. For Aβ1-40 aggregation, Aβ1-40 was reconstituted in H2O at a concentration of 5 mg/ml, and incubated for one week at 37° C.
as §4
Expression of CatB was measured by quantitative RT-PCR. Total RNA in N2A cells was isolated with Trizol reagent (Invitrogen). After treatment with RNase-free DNase (Ambion) for 30 min at 37° C., total RNA (60 ng/ml) was reverse-transcribed with random hexamers and oligo d(T) primers. The expression of CatB relative to GAPDH was determined with SYBR green dye chemistry and an ABI Prism 7700 sequence detector (Applied Biosystems, Foster City, Calif.), as recommended by the manufacturer. Primer quality was verified by dissociation curve analysis, the slopes of standard curves, and reactions without RT. The following primers were used: mouse CatB (forward 5′-[…]-3′ (SEQ ID NO:7); reverse 5′-[…]-3′ (SEQ ID NO:8)) and mouse GAPDH (forward 5′-[…]-3′ (SEQ ID NO:9); reverse 5′-[…]-3′ (SEQ ID NO:10)).

The test system of another data set is Aβ1-42. Kind of data set: In vitro cleavage assay of Aβ1-42 by purified CatB (SELDI-TOF MS, western blot, electron microscopy). It is filed as biochemical. On the procedure:
as §5
Aβ1-42 and Aβ1-40 samples were characterized by negative-staining electron microscopy (JEOL 1230, Peabody, Mass.). Samples were prepared with “matured” carbon-coated grids and 2% potassium phosphotungstate, pH 6.5, using the drop method (Hamilton et al., 1980), and examined at 80 KV with a condenser aperture of 200 μm and an objective aperture of 50 μm. Images were obtained with a Gatan Ultrascan USC1000 digital camera (Gatan, Warrendale, Pa.).
as §1, §2
A general note: Immunoblotting shows a protein as a band on a membrane.

As for `CCCNC(=O)[C@H]1O[C@@H]1C(=O)N[C@H](C(=O)N1CCC[C@H]1C(=O)O)[C@@H](C)CC` [CA074], in data set [1] (Tricine SDS-PAGE), the “effect of the inhibitor on CatB-induced decrease of Aβ assemblies” value was “significantly diminished such effects”. In addition, the “effect of the inhibitor on CatB-induced reduction of Aβ1-42 fibrils” value in data set [1] (electron microscopy) is recorded as “inhibition with CA074”. In data set [1] (pH 6.0, SELDI-TOF), the “CatB-induced truncations of Aβ1-42 in the presence of the inhibitor” value was “No truncations occurred”.

For `COc1ccc2c(c1)c(CC(=O)O)c(C)n2C(=O)c1ccc(Cl)cc1` [indomethacin], in data set [2], the CatB activity entry is on record as “significant increase in CatB activity in a dose-dependent manner”.

Take “Aβ1-40: amyloid-β peptide 1-40 from rPeptide; tested nonaggregated and preaggregated”: in the data set on CatB in N2A cells, the CatB enzymatic activities entry is on record as “little or no effect” and the “CatB mRNA levels” value is “little or no effect”. Moreover, the CatB activity result in the data set on CatB in N2A cells (preaggregated peptide) is on record as “modest but significant increase”.

In the case of “Aβ1-42: amyloid-β peptide 1-42 from rPeptide”, in the data set with CatB in N2A cells, the CatB enzymatic activities result is reported as “markedly increased” and the “CatB mRNA levels” value is “markedly increased”.

For the molecule “CatB: purified CatB from human liver (Sigma), preactivated with cysteine”, in the data set with Aβ1-42 (Tricine SDS-PAGE, CatB 1-2 μg/ml), the “amounts of high-molecular-weight Aβ assemblies” value is listed as “marked decrease”. The “levels of low-MW Aβ1-42 oligomers and monomers” value in the data set with Aβ1-42 (Tricine SDS-PAGE, antibody specific for Aβ1-42) was “also reduced”. For the same molecule, the “proteolytic products from fresh (nonaggregated) Aβ1-42” value in the data set on Aβ1-42 (cell-free, pH 6.0, CatB 100-2500 ng/ml, SELDI-TOF) is “dose-dependent generation of Aβ1-40, Aβ1-38, and Aβ1-33”. Further, the “amount of fibrillar structures of preformed Aβ1-42 fibrils” value with Aβ1-42 (electron microscopy) is recorded as “did reduce the amount of fibrillar structures”. For the same molecule, in the data set on Aβ1-42 (neutral pH (~7.0)), the “ability to cleave Aβ, especially nonaggregated (fresh) Aβ” value is listed as “markedly reduced”. In addition, the “cleavage of protofibrillar Aβ1-42” value with Aβ1-42 (pH 6.0) is “cleaved by CatB as efficiently as nonaggregated preparations”.
